From patent US20260028365A1 (BIOGEN MA INC., priority 2022, published 2026)

How the values were obtained:
JH2 domain of human Tyk2 = JH2 domain of human Tyk2 (Homo sapiens (Human), UniProt P29597); test: JH2 Biochemical Assay (TR-FRET probe displacement); assay type: binding; settings: TR-FRET probe displacement, JH2 domain
Tyk2 = Tyk2 (Homo sapiens (Human), UniProt P29597); test: pSTAT4 Cell Assay (MSD, NK92 cells); assay type: cell-based
Sequence of Tyk2 (P29597 whole entry): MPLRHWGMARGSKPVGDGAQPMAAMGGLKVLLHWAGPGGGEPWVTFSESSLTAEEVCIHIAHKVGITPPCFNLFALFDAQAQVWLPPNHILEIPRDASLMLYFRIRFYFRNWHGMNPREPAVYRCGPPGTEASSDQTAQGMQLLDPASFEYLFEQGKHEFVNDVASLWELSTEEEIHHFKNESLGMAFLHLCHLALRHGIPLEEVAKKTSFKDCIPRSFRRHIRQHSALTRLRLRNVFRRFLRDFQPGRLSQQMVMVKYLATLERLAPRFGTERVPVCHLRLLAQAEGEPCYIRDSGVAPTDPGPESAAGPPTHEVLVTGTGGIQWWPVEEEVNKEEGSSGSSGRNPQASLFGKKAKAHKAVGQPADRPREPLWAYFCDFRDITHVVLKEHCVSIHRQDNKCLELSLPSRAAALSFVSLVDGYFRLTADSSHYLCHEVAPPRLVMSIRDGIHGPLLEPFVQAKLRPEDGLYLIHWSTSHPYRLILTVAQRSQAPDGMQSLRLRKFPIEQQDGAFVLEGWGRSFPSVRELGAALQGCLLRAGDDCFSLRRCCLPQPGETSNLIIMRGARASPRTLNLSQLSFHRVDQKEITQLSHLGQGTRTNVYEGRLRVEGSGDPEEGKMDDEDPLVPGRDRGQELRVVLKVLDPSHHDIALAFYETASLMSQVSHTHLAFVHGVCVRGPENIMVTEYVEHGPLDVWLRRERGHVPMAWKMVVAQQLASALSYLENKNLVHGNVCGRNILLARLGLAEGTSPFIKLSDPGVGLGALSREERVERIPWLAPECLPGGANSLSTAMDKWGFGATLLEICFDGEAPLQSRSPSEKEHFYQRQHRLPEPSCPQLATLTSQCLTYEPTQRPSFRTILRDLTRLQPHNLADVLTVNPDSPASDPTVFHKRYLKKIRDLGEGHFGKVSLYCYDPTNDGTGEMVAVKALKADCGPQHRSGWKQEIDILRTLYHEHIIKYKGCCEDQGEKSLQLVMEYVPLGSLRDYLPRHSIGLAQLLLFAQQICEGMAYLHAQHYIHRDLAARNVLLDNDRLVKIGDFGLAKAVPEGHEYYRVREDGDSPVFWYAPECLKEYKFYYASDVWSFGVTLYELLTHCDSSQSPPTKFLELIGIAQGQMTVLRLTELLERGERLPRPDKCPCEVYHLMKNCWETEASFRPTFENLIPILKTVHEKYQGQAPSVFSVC

Sequence of JH2 domain of human Tyk2 (P29597 575-876): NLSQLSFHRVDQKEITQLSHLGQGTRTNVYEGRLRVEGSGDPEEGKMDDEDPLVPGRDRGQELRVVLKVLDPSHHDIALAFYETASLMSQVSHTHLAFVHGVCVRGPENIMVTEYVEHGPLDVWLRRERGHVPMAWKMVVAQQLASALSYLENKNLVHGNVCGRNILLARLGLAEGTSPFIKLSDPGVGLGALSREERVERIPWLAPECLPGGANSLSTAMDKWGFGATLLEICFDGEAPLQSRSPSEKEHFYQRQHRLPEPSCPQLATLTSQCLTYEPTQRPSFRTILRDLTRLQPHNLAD

Row | SMILES | IC50 (JH2 domain of human Tyk2) | IC50 (Tyk2)
1 | COc1ccc(-c2cnc(NC(C)=O)cc2Nc2cc(C(C)C)nc(C(C)(F)F)n2)nn1 [Example 832, N-(4-((2-(1,1-difluoroethyl)-6-isopropylpyrimidin-4-yl)amino)-5-(6-methoxypyridazin-3-yl)pyridin-2-yl)acetamide] | ≤ 10 nM | ≤ 10 nM
2 | COc1ccc(-c2cnc(NC(C)=O)cc2Nc2cc(OC3CC3)nc(C(C)(F)F)n2)nn1 [Example 833, N-(4-((6-cyclopropoxy-2-(1,1-difluoroethyl)pyrimidin-4-yl)amino)-5-(6-methoxypyridazin-3-yl)pyridin-2-yl)acetamide] | ≤ 10 nM | ≤ 10 nM
3 | CC(=O)Nc1cc(Nc2cc(C)nc(C(C)(F)F)n2)c(-c2ccnc(C(C)(F)F)n2)cn1 [Example 837, N-(4-((2-(1,1-difluoroethyl)-6-methylpyrimidin-4-yl)amino)-5-(2-(1,1-difluoroethyl)pyrimidin-4-yl)pyridin-2-yl)acetamide] | ≤ 10 nM | ≤ 10 nM
4 | CC(=O)Nc1cc(Nc2cc(C)nc(C(C)(F)F)n2)c(-c2cnc(C#N)cn2)cn1 [Example 838, N-(5-(5-cyanopyrazin-2-yl)-4-((2-(1,1-difluoroethyl)-6-methylpyrimidin-4-yl)amino)pyridin-2-yl)acetamide] | ≤ 10 nM | 10 to 100 nM
5 | CCc1cc(Nc2cc(NC(C)=O)ncc2-c2ccc(C(C)(C)O)cn2)nc(C(C)(F)F)n1 [Example 839, N-(4′-((2-(1,1-difluoroethyl)-6-ethylpyrimidin-4-yl)amino)-5-(2-hydroxypropan-2-yl)-[2,3′-bipyridin]-6′-yl)acetamide] | ≤ 10 nM | ≤ 10 nM
6 | CC(=O)Nc1cc(Nc2ccnc(C(C)(F)F)n2)c(-c2ccc(N(C)C)nn2)cn1 [Example 841, N-(4-((2-(1,1-difluoroethyl)pyrimidin-4-yl)amino)-5-(6-(dimethylamino)pyridazin-3-yl)pyridin-2-yl)acetamide] | ≤ 10 nM | ≤ 10 nM
7 | CC(=O)Nc1cc(Nc2ccnc(C(C)(F)F)n2)c(-c2cnc(N(C)C)cn2)cn1 [Example 842, N-(4-((2-(1,1-difluoroethyl)pyrimidin-4-yl)amino)-5-(5-(dimethylamino)pyrazin-2-yl)pyridin-2-yl)acetamide] | ≤ 10 nM | 10 to 100 nM
8 | CC(=O)Nc1cc(Nc2ccnc(C(C)(F)F)n2)c(-c2cnc(N3CCCC3)cn2)cn1 [Example 843, N-(4-((2-(1,1-difluoroethyl)pyrimidin-4-yl)amino)-5-(5-(pyrrolidin-1-yl)pyrazin-2-yl)pyridin-2-yl)acetamide] | ≤ 10 nM | 10 to 100 nM
9 | CC(=O)Nc1cc(Nc2ccnc(C(C)(F)F)n2)c(-c2cnc(N3CCOCC3)cn2)cn1 [Example 844, N-(4-((2-(1,1-difluoroethyl)pyrimidin-4-yl)amino)-5-(5-morpholinopyrazin-2-yl)pyridin-2-yl)acetamide] | ≤ 10 nM | 10 to 100 nM
10 | CC(=O)Nc1cc(Nc2ccnc(C(C)(F)F)n2)c(-c2ccc(N3CCCC3)nn2)cn1 [Example 845, N-(4-((2-(1,1-difluoroethyl)pyrimidin-4-yl)amino)-5-(6-(pyrrolidin-1-yl)pyridazin-3-yl)pyridin-2-yl)acetamide] | ≤ 10 nM | ≤ 10 nM
11 | CCc1cc(Nc2cc(NC(C)=O)ncc2-c2ccc(COC)cn2)nc(C(C)(F)F)n1 [Example 846, N-(4′-((2-(1,1-difluoroethyl)-6-ethylpyrimidin-4-yl)amino)-5-(methoxymethyl)-[2,3′-bipyridin]-6′-yl)acetamide] | ≤ 10 nM | ≤ 10 nM
12 | CCc1cc(Nc2cc(NC(C)=O)ncc2-c2ncc(OC(F)F)cn2)nc(C(C)(F)F)n1 [Example 848, N-(4-((2-(1,1-difluoroethyl)-6-ethylpyrimidin-4-yl)amino)-5-(5-(difluoromethoxy)pyrimidin-2-yl)pyridin-2-yl)acetamide] | ≤ 10 nM | ≤ 10 nM
13 | CC(=O)Nc1cc(Nc2ccnc(C(C)(F)F)n2)c(-c2cnc(C#N)cn2)cn1 [Example 850, N-(5-(5-cyanopyrazin-2-yl)-4-((2-(1,1-difluoroethyl)pyrimidin-4-yl)amino)pyridin-2-yl)acetamide] | ≤ 10 nM | 100 to 1000 nM
14 | CC(=O)Nc1cc(Nc2ccnc(C(C)(F)F)n2)c(-c2ccc(C(C)(C)O)cn2)cn1 [Example 852, N-(4′-((2-(1,1-difluoroethyl)pyrimidin-4-yl)amino)-5-(2-hydroxypropan-2-yl)-[2,3′-bipyridin]-6′-yl)acetamide] | ≤ 10 nM | ≤ 10 nM
15 | CCc1cc(Nc2cc(NC(C)=O)ncc2-c2cnc(C(C)(C)O)cn2)nc(C(C)(F)F)n1 [Example 855, N-(4-((2-(1,1-difluoroethyl)-6-ethylpyrimidin-4-yl)amino)-5-(5-(2-hydroxypropan-2-yl)pyrazin-2-yl)pyridin-2-yl)acetamide] | ≤ 10 nM | ≤ 10 nM
16 | CCc1cc(Nc2cc(NC(C)=O)ncc2-c2cnc(N(C)C)cn2)nc(C(C)(F)F)n1 [Example 856, N-(4-((2-(1,1-difluoroethyl)-6-ethylpyrimidin-4-yl)amino)-5-(5-(dimethylamino)pyrazin-2-yl)pyridin-2-yl)acetamide] | ≤ 10 nM | 10 to 100 nM
17 | CC(=O)Nc1cc(Nc2ccnc(C(C)(F)F)n2)c(-c2ccc(OC(F)F)nn2)cn1 [Example 858, N-(4-((2-(1,1-difluoroethyl)pyrimidin-4-yl)amino)-5-(6-(difluoromethoxy)pyridazin-3-yl)pyridin-2-yl)acetamide] | ≤ 10 nM | 10 to 100 nM
18 | CCc1cc(Nc2cc(NC(C)=O)ncc2-c2cnc(NC)cn2)nc(C(C)(F)F)n1 [Example 860, N-(4-((2-(1,1-difluoroethyl)-6-ethylpyrimidin-4-yl)amino)-5-(5-(methylamino)pyrazin-2-yl)pyridin-2-yl)acetamide] | 100 to 1000 nM | ≥ 1000 nM
19 | CCc1cc(Nc2cc(NC(C)=O)ncc2-c2ccc(N(C)C)nn2)nc(C(C)(F)F)n1 [Example 862, N-(4-((2-(1,1-difluoroethyl)-6-ethylpyrimidin-4-yl)amino)-5-(6-(dimethylamino)pyridazin-3-yl)pyridin-2-yl)acetamide] | ≤ 10 nM | ≤ 10 nM
20 | CCc1cc(Nc2cc(NC(C)=O)ncc2-c2ccc(N3CCOCC3)nn2)nc(C(C)(F)F)n1 [Example 863, N-(4-((2-(1,1-difluoroethyl)-6-ethylpyrimidin-4-yl)amino)-5-(6-morpholinopyridazin-3-yl)pyridin-2-yl)acetamide] | ≤ 10 nM | ≤ 10 nM
21 | CCc1cc(Nc2cc(NC(C)=O)ncc2-c2cnc(C#N)cn2)nc(C(C)(F)F)n1 [Example 864, N-(5-(5-cyanopyrazin-2-yl)-4-((2-(1,1-difluoroethyl)-6-ethylpyrimidin-4-yl)amino)pyridin-2-yl)acetamide] | ≤ 10 nM | 10 to 100 nM
22 | CCc1cc(Nc2cc(NC(C)=O)ncc2-c2ccc(=O)n(C)n2)nc(C(C)(F)F)n1 [Example 865, N-(4-((2-(1,1-difluoroethyl)-6-ethylpyrimidin-4-yl)amino)-5-(1-methyl-6-oxo-1,6-dihydropyridazin-3-yl)pyridin-2-yl)acetamide] | ≤ 10 nM | 10 to 100 nM
23 | COCCN(C)c1cnc(-c2cnc(NC(C)=O)cc2Nc2ccnc(C(C)(F)F)n2)cn1 [Example 866, N-(4-((2-(1,1-difluoroethyl)pyrimidin-4-yl)amino)-5-(5-((2-methoxyethyl)(methyl)amino)pyrazin-2-yl)pyridin-2-yl)acetamide] | ≤ 10 nM | 10 to 100 nM
24 | COC1CCN(c2cnc(-c3cnc(NC(C)=O)cc3Nc3ccnc(C(C)(F)F)n3)cn2)C1 (stereo not drawn) [Example 867, N-(4-((2-(1,1-difluoroethyl)pyrimidin-4-yl)amino)-5-(5-(3-methoxypyrrolidin-1-yl)pyrazin-2-yl)pyridin-2-yl)acetamide] | ≤ 10 nM | 10 to 100 nM
25 | COC1(C)CN(c2cnc(-c3cnc(NC(C)=O)cc3Nc3ccnc(C(C)(F)F)n3)cn2)C1 [Example 868, N-(4-((2-(1,1-difluoroethyl)pyrimidin-4-yl)amino)-5-(5-(3-methoxy-3-methylazetidin-1-yl)pyrazin-2-yl)pyridin-2-yl)acetamide] | ≤ 10 nM | 10 to 100 nM
26 | CC(=O)Nc1cc(Nc2ccnc(C(C)(F)F)n2)c(-c2cnc(N3CCC4(COC4)C3)cn2)cn1 [Example 869, N-(5-(5-(2-oxa-6-azaspiro[3.4]octan-6-yl)pyrazin-2-yl)-4-((2-(1,1-difluoroethyl)pyrimidin-4-yl)amino)pyridin-2-yl)acetamide] | 10 to 100 nM | 100 to 1000 nM
27 | CC(=O)Nc1cc(Nc2ccnc(C(C)(F)F)n2)c(-c2cnc(N3C[C@@H]4C[C@H]3CO4)cn2)cn1 [Example 870, N-(5-(5-((1S,4S)-2-oxa-5-azabicyclo[2.2.1]heptan-5-yl)pyrazin-2-yl)-4-((2-(1,1-difluoroethyl)pyrimidin-4-yl)amino)pyridin-2-yl)acetamide] | ≤ 10 nM | 10 to 100 nM
28 | CC(=O)Nc1cc(Nc2ccnc(C(C)(F)F)n2)c(-c2cnc(N3C[C@H]4C[C@@H]3CO4)cn2)cn1 [Example 871, N-(5-(5-((1R,4R)-2-oxa-5-azabicyclo[2.2.1]heptan-5-yl)pyrazin-2-yl)-4-((2-(1,1-difluoroethyl)pyrimidin-4-yl)amino)pyridin-2-yl)acetamide] | ≤ 10 nM | 10 to 100 nM
29 | CC(=O)Nc1cc(Nc2ccnc(C(C)(F)F)n2)c(-c2cnc(N3CC4(CCOC4)C3)cn2)cn1 [Example 872, N-(5-(5-(6-oxa-2-azaspiro[3.4]octan-2-yl)pyrazin-2-yl)-4-((2-(1,1-difluoroethyl)pyrimidin-4-yl)amino)pyridin-2-yl)acetamide] | ≤ 10 nM | 10 to 100 nM
30 | COC1(C)CN(c2ccc(-c3cnc(NC(C)=O)cc3Nc3ccnc(C(C)(F)F)n3)nn2)C1 [Example 874, N-(4-((2-(1,1-difluoroethyl)pyrimidin-4-yl)amino)-5-(6-(3-methoxy-3-methylazetidin-1-yl)pyridazin-3-yl)pyridin-2-yl)acetamide] | ≤ 10 nM | ≤ 10 nM
